In ChEMBL document CHEMBL6114969, “Ultra-short lipopeptides containing d-amino acid exhibiting excellent stability and antibacterial activity against gram-positive bacteria” (Eur J Med Chem, 2025):
Active and inactive are the calls of the source. No cut-off for these calls is given here.

Legend:
Staphylococcus aureus [1] = assay: Synergistic bactericidal activity against persistent methicillin-resistant Staphylococcus aureus ATCC 33591 incubated for 18 to 24 hrs in presence of imipenem by time-kill assay; format: functional, organism-based; conditions: time 18-24 hrs
Staphylococcus aureus [2] = assay: (§1) Antibacterial activity against methicillin-resistant Staphylococcus aureus ATCC 33591 infected in Balb/c mouse model of skin wound infection assessed as reduction in keratosis in wound surface at 10 mg/kg, ip administered thrice at 1, 24 and 48 hrs post-infection measured after 14 days in presence of polymyxin B by IHC analysis; format: functional, organism-based; conditions: time 14.0 day
Staphylococcus aureus [3] = assay: Antibacterial activity against methicillin-resistant Staphylococcus aureus ATCC 33591 infected in Balb/c mouse model of acute systemic infection assessed as reduction in inflammatory cell infiltration in lung at 10 mg/kg, ip measured after 5 days by H and E staining based analysis; format: functional, organism-based; conditions: time 5.0 day
Staphylococcus aureus [4] = assay: Induction of drug resistance in methicillin-resistant Staphylococcus aureus ATCC 33591 at sub-MIC measured after 15 passages; format: functional, organism-based
[5] = Toxicity in Balb/c mouse assessed as change in spleen co-efficient at 20 to 80 mg/kg, ip measured after 7 days; format: organism-based; conditions: in vivo, 168 h, dose 20-80 mg/kg, time 7 day
Staphylococcus aureus [6] = assay: as §1, with “TNF-alpha activity” for “keratosis”, “skin” for “wound surface”; format: functional, organism-based; conditions: time 14.0 day
Staphylococcus aureus [7] = assay: Bactericidal activity against methicillin-resistant Staphylococcus aureus ATCC 33591 at 4 times MIC incubated for 24 hrs in presence of >64 ug/ml phosphatidylcholine by absorbance based assay; format: functional, organism-based
Staphylococcus aureus [8] = assay: Antibacterial activity against methicillin-resistant Staphylococcus aureus ATCC 33591 infected in Balb/c mouse model of acute systemic infection assessed as reduction in bacterial count in spleen at 10 mg/kg, ip measured after 5 days; format: functional, organism-based; conditions: time 5.0 day
[9] = Toxicity in Balb/c mouse assessed as change in serum CREA level at 80 mg/kg, ip measured after 7 days; format: organism-based; conditions: in vivo, 168 h, time 7 day
Staphylococcus aureus [10] = assay: Antibacterial activity against methicillin-resistant Staphylococcus aureus ATCC 33591 infected in Balb/c mouse model of acute systemic infection assessed as reduction in alveolar contraction in lung at 10 mg/kg, ip measured after 5 days by H and E staining based analysis; format: functional, organism-based; conditions: time 5.0 day
Staphylococcus aureus [11] = assay: Synergistic antibacterial activity against methicillin-resistant Staphylococcus aureus ATCC 33591 assessed as fractional inhibitory concentration index upto 2 times MIC incubated for 18 to 24 hrs in presence of ciprofloxacin by checkerboard assay; format: functional; conditions: time 18-24 hrs
Staphylococcus aureus [12] = assay: Antibacterial activity against methicillin-resistant Staphylococcus aureus ATCC 33591 assessed as fold change in MIC incubated for 18 to 24 hrs in presence of 10 percent mouse serum by broth microdilution method; format: functional; conditions: time 18-24 hrs
Staphylococcus aureus [13] = assay: Inhibition of gentamicin-induced drug resistance in methicillin-resistant Staphylococcus aureus ATCC 33591 at sub-MIC measured upto 15 passages; format: functional, organism-based
Staphylococcus aureus [14] = assay: Additive bactericidal activity against methicillin-resistant Staphylococcus aureus ATCC 33591 incubated for 18 to 24 hrs in presence of ciprofloxacin by time-kill assay; format: functional, organism-based; conditions: time 18-24 hrs
Staphylococcus aureus [15] = assay: Antibacterial activity against methicillin-resistant Staphylococcus aureus ATCC 33591 infected in Balb/c mouse model of skin wound infection assessed as wound heal at 10 mg/kg, ip administered thrice at 1, 24 and 48 hrs post-infection measured after 14 days relative to control; format: functional; conditions: time 14 day
Staphylococcus aureus [16] = assay: Antibacterial activity against methicillin-resistant Staphylococcus aureus ATCC 33591 assessed as fold change in MIC incubated for 18 to 24 hrs in presence of 10 percent FBS by broth microdilution method; format: functional; conditions: time 18-24 hrs
[17] = Toxicity in Balb/c mouse assessed as organ edema at 20 to 80 mg/kg, ip measured after 7 days; format: organism-based; conditions: in vivo, 168 h, dose 20-80 mg/kg, time 7 day
Staphylococcus aureus [18] = assay: as §1, with “IL-1beta activity” for “keratosis”, “skin” for “wound surface”; format: functional, organism-based; conditions: time 14.0 day
[19] = Toxicity in Balb/c mouse assessed as spleen pigmentation at 80 mg/kg, ip measured after 7 days; format: organism-based; conditions: in vivo, 168 h, time 7 day
Staphylococcus aureus [20] = assay: Antibacterial activity against methicillin-resistant Staphylococcus aureus ATCC 33591 infected in Balb/c mouse model of pneumonia infection assessed as reduction in bacterial load in lung at 10 mg/kg, ip administered thrice at 4, 8 and 12 hrs post-infection measured after 24 hrs post-infection; format: functional, organism-based; conditions: time 20.0 hrs
Staphylococcus aureus [21] = assay: as §1, with “TNF-alpha activity” for “keratosis”, “skin” for “wound surface”, “days” for “days in presence of polymyxin B”; format: functional, organism-based; conditions: time 14.0 day
Staphylococcus aureus [22] = assay: as §1, with “days” for “days in presence of polymyxin B”; format: functional, organism-based; conditions: time 14.0 day
[23] = Toxicity in Balb/c mouse assessed as cell swelling in lung at 80 mg/kg, ip measured after 7 days by H and E staining based analysis; format: organism-based; conditions: in vivo, 168 h, time 7 day
[24] = Toxicity in Balb/c mouse assessed as survival rate at 20 mg/kg, ip measured after 7 days; format: organism-based; conditions: in vivo, time 7 day
Staphylococcus aureus [25] = assay: Antibacterial activity against methicillin-resistant Staphylococcus aureus ATCC 33591 assessed as fold change in MIC incubated for 18 to 24 hrs in presence of NaCl by broth microdilution method; format: functional; conditions: time 18-24 hrs
Staphylococcus aureus [26] = assay: Induction of ROS production in methicillin-resistant Staphylococcus aureus ATCC 33591 at 1 to 4 times MIC measured upto 360 mins by DCFH-DA dye based analysis; format: functional, organism-based
Staphylococcus aureus [27] = assay: Antibacterial activity against methicillin-resistant Staphylococcus aureus ATCC 33591 infected in Balb/c mouse model of acute systemic infection assessed as reduction in inflammatory cell infiltration in liver at 10 mg/kg, ip measured after 5 days by H and E staining based analysis; format: functional, organism-based; conditions: time 5.0 day
Staphylococcus aureus [28] = assay: as §1, with “inflammatory cell infiltration” for “keratosis”, “skin” for “wound surface”, “H and E staining based” for “IHC”; format: functional, organism-based; conditions: time 14.0 day
[29] = Stability in mouse serum assessed as compound degradation measured upto 96 hrs by RP-HPLC analysis; format: ADME, cell-free; conditions: read-out: Drug degradation
Staphylococcus aureus [30] = assay: Synergistic antibacterial activity against methicillin-resistant Staphylococcus aureus ATCC 33591 assessed as fractional inhibitory concentration index upto 2 times MIC incubated for 18 to 24 hrs in presence of imipenem by checkerboard assay; format: functional; conditions: time 18-24 hrs

CCCCCCCCCCCC(=O)N[C@H](CCCNC(=N)N)C(=O)N[C@H](CCCNC(=N)N)C(=O)N[C@H](Cc1c[nH]c2ccccc12)C(=O)O
Activity (Staphylococcus aureus [1]): Dose-dependent-effect | Activity (Staphylococcus aureus [2]): Active | Activity (Staphylococcus aureus [3]): Active | Activity (Staphylococcus aureus [4]): inactive | Activity [5]: Non-toxic | Activity (Staphylococcus aureus [6]): Active | Activity (Staphylococcus aureus [7]): inactive | Activity (Staphylococcus aureus [8]): Active | Activity [9]: Toxic | Activity (Staphylococcus aureus [10]): Active | fractional inhibitory concentration index (FICI) (Staphylococcus aureus [11]): 0.75 | fold change (FC) (Staphylococcus aureus [12]): 8 | inhibition (Staphylococcus aureus [13]): Active | Activity (Staphylococcus aureus [14]): Active | Activity (Staphylococcus aureus [15]): 100% | fold change (FC) (Staphylococcus aureus [16]): 8 | Activity [17]: Toxic | Activity (Staphylococcus aureus [18]): Active | Activity [19]: Toxic | Activity (Staphylococcus aureus [20]): Active | Activity (Staphylococcus aureus [21]): Active | Activity (Staphylococcus aureus [22]): Active | Activity [23]: Toxic | survival at 168 h [24]: 62.5% | fold change (FC) (Staphylococcus aureus [25]): <3 | Activity (Staphylococcus aureus [26]): Active | Activity (Staphylococcus aureus [27]): Active | Activity (Staphylococcus aureus [28]): Active | metabolised at 96 h [29]: ~20% | fractional inhibitory concentration index (FICI) (Staphylococcus aureus [30]): 0.25
